According to US8288416B2, “Substituted piperidinophenyl oxazolidinones” (Wockhardt Ltd., priority 2006, dated 2012):
Counter-ions that a name gives are not always drawn. Like-named read-outs stand apart in the source and are kept apart here.

Columns and labels:
Aqueous solubility = assay type: physicochemical; settings: for solubility: aqueous
[1] = pH 7, aqueous buffer, pH 7, read-out: Aqueous solubility at pH 7

## COCC1(OP(=O)(O)O)CCN(c2c(F)cc(N3C[C@H](CNC(C)=O)OC3=O)cc2F)CC1 [Example 3, Phosphoric acid mono-(1-{4-[(S)-5-(acetylamino-methyl)-2-oxo-oxazolidin-3-yl]-2,6-difluorophenyl}-4-methoxymethyl-piperidin-4-yl)ester]
other
  melting point: > 140 °C
Aqueous solubility; pH not stated, read-out: Aqueous solubility
  solubility: > 200 mg/mL

## COCC1(OP(=O)(O)O)CCN(c2c(F)cc(N3C[C@H](CNC(C)=O)OC3=O)cc2F)CC1 [Example 4, Phosphoric acid mono-(1-{4-[(S)-5-(acetylamino-methyl)-2-oxo-oxazolidin-3-yl]-2,6-difluoro-phenyl}-4-methoxymethyl-piperidin-4-yl)ester di sodium salt]
Aqueous solubility; pH 7, di sodium salt
  Aqueous solubility at pH 7: > 200 mg/ml

## COCC1(OP(=O)(O)O)CCN(c2c(F)cc(N3C[C@H](CNC(C)=O)OC3=O)cc2F)CC1 [Example 5, Phosphoric acid mono-(1-{4-[(S)-5-(acetylamino-methyl)-2-oxo-oxazolidin-3-yl]-2,6-difluoro-phenyl}-4-methoxymethyl-piperidin-4-yl)ester di potassium salt]
Aqueous solubility; pH 7, di potassium salt
  Aqueous solubility at pH 7: > 200 mg/ml

## COCC1(OP(=O)(O)O)CCN(c2c(F)cc(N3C[C@H](CNC(C)=O)OC3=O)cc2F)CC1 [Example 6, Phosphoric acid mono-(1-{4-[(S)-5-(acetylamino-methyl)-2-oxo-oxazolidin-3-yl]-2,6-difluoro-phenyl}-4-methoxymethyl-piperidin-4-yl)ester magnesium salt]
Aqueous solubility; pH 7
  Aqueous solubility at pH 7: ~2 mg/ml

## COCC1(OP(=O)([O-])[O-])CCN(c2c(F)cc(N3C[C@H](CNC(C)=O)OC3=O)cc2F)CC1.[Ca+2] [Example 7, Phosphoric acid mono-(1-{4-[(S)-5-(acetylamino-methyl)-2-oxo-oxazolidin-3-yl]-2,6-difluoro-phenyl}-4-methoxymethyl-piperidin-4-yl)ester calcium salt]
Aqueous solubility; [1]
  solubility: ~0.5 mg/mL

## COCC1(OC(=O)CN)CCN(c2c(F)cc(N3C[C@H](CNC(C)=O)OC3=O)cc2F)CC1.Cl [Example 11, 2-Amino-acetic acid 1-{4-[(S)-5-(acetylamino-methyl)-2-oxo-oxazolidin-3-yl]-2,6-difluorophenyl}-4-methoxymethyl-piperidin-4-yl ester hydrochloride salt]
Aqueous solubility; [1]
  solubility: > 100 mg/mL

## COCC1(OC(=O)CN)CCN(c2c(F)cc(N3C[C@H](CNC(C)=O)OC3=O)cc2F)CC1.O=C(O)C(F)(F)F [Example 12, 2-Amino-acetic acid 1-{4-[(S)-5-(acetylamino-methyl)-2-oxo-oxazolidin-3-yl]-2,6-difluorophenyl}-4-methoxymethyl-piperidin-4-yl ester triflouroacetic acid salt]
Aqueous solubility; pH 7
  Aqueous solubility at pH 7: > 100 mg/ml

## COCC1(C(=O)[C@H](C)NC(=O)OC(C)(C)C)CCN(c2c(F)cc(N3C[C@H](CNC(C)=O)OC3=O)cc2F)CC1 [Example 13, (S)—N-{3-[3,5-difluoro-4-(4-(S)-2-tert-butoxycarbonylamino-propionyl-4-methoxymethyl-piperidine-1-yl)phenyl]-2-oxo-oxazolidin-5-ylmethyl}-acetamide]
Aqueous solubility; pH 7
  Aqueous solubility at pH 7: > 100 mg/ml

## COCC1(OC(=O)C(C)N)CCN(c2c(F)cc(N3C[C@H](CNC(C)=O)OC3=O)cc2F)CC1.Cl (stereo partly drawn) [Example 14, 2-Amino-propionic acid 1-{4-[(S)-5-(acetylamino-methyl)-2-oxo-oxazolidin-3-yl]-2,6-difluorophenyl}-4-methoxymethyl-piperidin-4-yl ester hydrochloride salt]
Aqueous solubility; [1]
  solubility: > 100 mg/mL

## COCC1(OC(=O)C(C)N)CCN(c2c(F)cc(N3C[C@H](CNC(C)=O)OC3=O)cc2F)CC1.O=C(O)C(F)(F)F (stereo partly drawn) [Example 15, 2-Amino-propionic acid 1-{4-[(S)-5-(acetylamino-methyl)-2-oxo-oxazolidin-3-yl]-2,6-difluorophenyl}-4-methoxymethyl-piperidin-4-yl ester triflouroacetic acid salt]
Aqueous solubility; pH 7
  Aqueous solubility at pH 7: > 100 mg/ml

## COCC1(C(=O)[C@@H](NC(=O)OCc2ccccc2)C(C)C)CCN(c2c(F)cc(N3C[C@H](CNC(C)=O)OC3=O)cc2F)CC1 [Example 16, (S)—N-{3-[3,5-Difluoro-4-(4-(S)-2-carbobenzyloxyamino-3,3-dimethylpropionyl-4-methoxymethyl-piperidine-1-yl)phenyl]-2-oxo-oxazolidin-5-ylmethyl}-acetamide]
Aqueous solubility; pH 7
  Aqueous solubility at pH 7: > 100 mg/ml

## COCC1(OC(=O)C(N)C(C)C)CCN(c2c(F)cc(N3C[C@H](CNC(C)=O)OC3=O)cc2F)CC1.CS(=O)(=O)O (stereo partly drawn) [Example 17, 2-Amino-3,3-dimethylpropionic acid 1-{4-[(S)-5-(acetylamino-methyl)-2-oxo-oxazolidin-3-yl]-2,6-difluorophenyl}-4-methoxymethyl-piperidin-4-yl ester methane sulfonic acid salt]
Aqueous solubility; pH 7, aqueous buffer, read-out: Aqueous solubility at pH 7
  solubility: > 100 mg/mL
